Several values for one entry are separate records, joined by “and”; a condition that tells them apart may be missing. Identical values can stand only once. Like-named read-outs stand apart in the source and are kept apart here.
Experiments:
[1] = not given; remark: listed apart in the source
[2] = male Wistar rats, IV 11 mg/kg, 6 minutes post-dosing; ref Dormard et al. (1975); cited from earlier work
[3] = Radiochemical HPLC profiling of urine after [^14C]DMAE; conditions: Oral
[4] = male Wistar Han rats, gavage 10 mg/kg, 24 h
[5] = male Wistar Han rats, gavage 10 mg/kg, 24 h, listed as [^14C]DMAE, 10 mg/kg
[6] = male Wistar Han rats, gavage 100 mg/kg, 24 h
[7] = male Wistar Han rats, gavage 500 mg/kg, 24 h
[8] = male Wistar Han rats, gavage 500 mg/kg, 72 h
[9] = female B6C3F1 mice, gavage 10 mg/kg, 24 h
[10] = female B6C3F1 mice, gavage 10 mg/kg, 24 h, listed as [^14C]DMAE, 10 mg/kg
[11] = female B6C3F1 mice, gavage 100 mg/kg, 24 h
[12] = female B6C3F1 mice, gavage 100 mg/kg, 24 h, listed as [^14C]DMAE, 100 mg/kg
[13] = female B6C3F1 mice, gavage 500 mg/kg, 24 h
[14] = female B6C3F1 mice, gavage 500 mg/kg, 24 h, listed as [^14C]DMAE, 500 mg/kg
[15] = female B6C3F1 mice, gavage 500 mg/kg, 72 h
[16] = male B6C3F1 mice, gavage 500 mg/kg, 24 h

Compound: CN(C)CCO [DMAE, Dimethylaminoethanol]
- % Dose Recovered, Urine (male Wistar Han rats, IV 10 mg/kg, 24 h, listed as [^14C]DMAE, 10 mg/kg): 39.2 ± 7.80 % dose
- % Dose Recovered, CO2 [4]: 3.67 ± 0.440 % dose
- % Dose Recovered, Feces [4]: 0.206 ± 0.242 % dose
- % Dose Recovered, Tissues and GI Tract (includes contents) [4]: 33.9 ± 2.20 % dose
- % Dose Recovered, VOCs [4]: 0.153 ± 0.037 % dose
- percent radioactivity remaining in all tissues, excluding GI tract [4]: ~28%
- % Dose Recovered, Total Recovered [5]: 95 % dose and 94.9 ± 3.20 % dose
- % Dose Recovered, Urine [5]: 57.0 ± 4.10 % dose
- % Dose Recovered, CO2 [6]: 4.84 ± 0.700 % dose
- % Dose Recovered, Feces [6]: 0.302 ± 0.061 % dose
- % Dose Recovered, Tissues and GI Tract (includes contents) [6]: 30.1 ± 3.80 % dose
- % Dose Recovered, Total Recovered [6]: 93.9 ± 2.90 % dose
- percent radioactivity remaining in all tissues, excluding GI tract [6]: ~25%
- % Dose Recovered, Urine (male Wistar Han rats, gavage 100 mg/kg, 24 h, listed as [^14C]DMAE, 100 mg/kg): 59 % dose and 58.6 ± 5.10 % dose
- % Dose Recovered, CO2 [7]: 4.78 ± 0.810 % dose
- % Dose Recovered, Feces [7]: 0.518 ± 0.472 % dose
- % Dose Recovered, Tissues and GI Tract (includes contents) [7]: 24.3 ± 2.10 % dose
- % Dose Recovered, Total Recovered [7]: 92.1 ± 1.90 % dose
- % Dose Recovered, VOCs [7]: 0.198 ± 0.038 % dose
- percent radioactivity remaining in all tissues, excluding GI tract [7]: ~21%
- % Dose Recovered, Urine (male Wistar Han rats, gavage 500 mg/kg, 24 h, listed as [^14C]DMAE, 500 mg/kg): 62 % dose and 62.1 ± 1.50 % dose
- % Dose Recovered, Feces [8]: 1.11 ± 1.01 % dose
- % Dose Recovered, Tissues and GI Tract (includes contents) [8]: 14.5 ± 1.20 % dose
- % Dose Recovered, Total Recovered [8]: 92.0 ± 2.20 % dose
- % Dose Recovered, Urine [8]: 68.6 ± 2.00 % dose
- administered dose found as expired CO2 (male Wistar Han rats, gavage, all dose levels (10, 100, 500 mg/kg), 24 h): 4–5%
- total administered dose recovered (male and female Wistar Han rats, oral administration, range over groups): 92–98%
- excretion in urine (rats, gavage, range over groups): 57–64%
- excreted as exhaled CO2 (rats, range over groups): ≤ 6%
- administered dose recovered in tissues (excluding GI tract) ([1]; B6C3F1 mice, oral, 24 h post-exposure, range over groups): 26–44%
- % Dose Recovered, Feces [1, 9]: 1.94 ±0.490 % dose
- % Dose Recovered, Tissues and GI Tract (includes contents) [1, 9]: 57.6 ± 3.00 % dose
- % Dose Recovered, Total Recovered [1, 9]: 99.3 ± 1.60 % dose
- % Dose Recovered, VOCs [1, 9]: 1.66 ± 0.340 % dose
- percent radioactivity remaining in all tissues, excluding GI tract [1, 9]: ~44%
- % Dose Recovered, CO2 [1, 10]: 22 % dose and 22.3 ± 3.68 % dose
- % Dose Recovered, Urine [1, 10]: 16 % dose and 15.8 ± 4.00 % dose
- % Dose Recovered, Feces [1, 11]: 1.10 ± 0.410 % dose
- % Dose Recovered, Tissues and GI Tract (includes contents) [1, 11]: 44.5 ± 1.70 % dose
- % Dose Recovered, Total Recovered [1, 11]: 81.6 ± 4.40 % dose
- % Dose Recovered, VOCs [1, 11]: 1.27 ± 0.160 % dose
- percent radioactivity remaining in all tissues, excluding GI tract [1, 11]: ~30%
- % Dose Recovered, CO2 [1, 12]: 16 % dose and 15.5 ± 0.600 % dose
- % Dose Recovered, Urine [1, 12]: 18 % dose and 17.9 ± 3.90 % dose
- % Dose Recovered, Feces [1, 13]: 0.713 ± 0.273 % dose
- % Dose Recovered, Tissues and GI Tract (includes contents) [1, 13]: 38.4 ± 16.1 % dose
- % Dose Recovered, Total Recovered [1, 13]: 97.1 ± 15.2 % dose
- % Dose Recovered, VOCs [1, 13]: 1.51 ± 0.210 % dose
- percent radioactivity remaining in all tissues, excluding GI tract [1, 13]: ~32%
- % Dose Recovered, CO2 [1, 14]: 13 % dose and 13.2 ± 1.80 % dose
- % Dose Recovered, Urine [1, 14]: 43 % dose and 43.4 ± 11.5 % dose
- % Dose Recovered, CO2 [1, 15]: 21.0 ± 2.20 % dose
- % Dose Recovered, Feces [1, 15]: 2.24 ± 1.31 % dose
- % Dose Recovered, Tissues and GI Tract (includes contents) [1, 15]: 19.0 ± 3.70 % dose
- % Dose Recovered, Total Recovered [1, 15]: 97.2 ± 6.40 % dose
- % Dose Recovered, Urine [1, 15]: 53.8 ± 3.90 % dose
- % Dose Recovered, VOCs [1, 15]: 1.08 ± 0.190 % dose
- total administered dose recovered in tissues [1, 15]: 16%
- radioactivity in feces and VOCs ([1]; female B6C3F1 mice, gavage, across all dose groups): < 2%
- % Dose Recovered, CO2 [1, 16]: 17.8 ± 1.10 % dose
- % Dose Recovered, Feces [1, 16]: 13.7 ± 14.9 % dose
- % Dose Recovered, Tissues and GI Tract (includes contents) [1, 16]: 31.8 ± 1.50 % dose
- % Dose Recovered, Total Recovered [1, 16]: 92.1 ± 13.6 % dose
- % Dose Recovered, Urine [1, 16]: 27.1 ± 20.0 % dose
- % Dose Recovered, VOCs [1, 16]: 1.75 ± 0.319 % dose
- excretion in urine ([1]; mice, gavage, range over groups): 16–43%
- excreted as exhaled CO2 ([1]; mice, range over groups): 13–22%
- total percentage of administered dose recovered ([1]; mouse studies, range over groups): 82–99%
- % of IV dose present in the plasma [2]: 0.16%
- Estimated percentage of area of DMAE peak in urine chromatogram ([3]; Mouse/Female, [^14C]DMAE 10 mg/kg): 8%
- Estimated percentage of area of DMAE peak in urine chromatogram ([3]; Mouse/Female, [^14C]DMAE 100 mg/kg): 82%
- Estimated percentage of area of DMAE peak in urine chromatogram ([3]; Mouse/Female, [^14C]DMAE 500 mg/kg): 66%
- Estimated percentage of area of DMAE peak in urine chromatogram ([3]; Mouse/Male, [^14C]DMAE 500 mg/kg): 100%
